# Molecular target: T1, human PPAR γ 2 (Homo sapiens, UniProt P37231)
# T1 construct: expressed in transfected cells; host or cells: human osteosarcoma MG63, transiently co-transfected with pSG5-hPPARg and the reporter pGV-P2-PPRE
# T1 sequence (P37231 1-505): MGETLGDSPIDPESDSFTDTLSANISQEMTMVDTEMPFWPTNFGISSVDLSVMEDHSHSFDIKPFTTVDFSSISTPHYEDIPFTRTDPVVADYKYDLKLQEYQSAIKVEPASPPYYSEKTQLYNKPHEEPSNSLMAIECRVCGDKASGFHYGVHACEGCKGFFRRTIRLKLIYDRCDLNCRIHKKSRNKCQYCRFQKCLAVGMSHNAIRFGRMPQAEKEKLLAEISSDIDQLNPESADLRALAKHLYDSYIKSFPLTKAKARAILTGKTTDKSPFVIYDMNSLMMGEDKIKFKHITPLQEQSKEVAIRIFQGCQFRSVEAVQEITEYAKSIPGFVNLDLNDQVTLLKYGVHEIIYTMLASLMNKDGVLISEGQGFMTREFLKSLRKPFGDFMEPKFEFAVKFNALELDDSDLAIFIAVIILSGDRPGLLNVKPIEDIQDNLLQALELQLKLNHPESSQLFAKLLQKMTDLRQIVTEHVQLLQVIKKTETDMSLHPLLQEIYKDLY
# Assay: Inhibitory activity against PPAR γ transcription in the presence of agonist compound A, luciferase reporter
# Assay type: cell-based
# Details: in the presence of 10 nM compound A (agonist); MG63 cells transfected with pSG5-hPPARg and pGV-P2-PPRE; 24 hr
row,IC50,Compound
1,0.061 µM,"Cc1nnc(NS(=O)(=O)c2ccc(NC(=O)c3cc([N+](=O)[O-])ccc3Cl)cc2)s1 [Example 101, N-[4-[(5-Methyl-[1,3,4]thiadiazol-2-yl)aminosulfonyl]phenyl]-(2-chloro-5-nitrophenyl)carboxamide]"
2,0.27 µM,"Cc1noc(NS(=O)(=O)c2ccc(NC(=O)c3cc([N+](=O)[O-])ccc3Cl)cc2)c1C [Example 104, N-[4-[(3,4-Dimethylisoxazol-6-yl)aminosulfonyl]phenyl]-(2-chloro-5-nitrophenyl)carboxamide]"
3,0.0086 µM,"CC(=O)Nc1ccc(-c2ccc(NC(=O)c3cc([N+](=O)[O-])ccc3Cl)cc2)cc1 [Example 118, N-[4-(4-Acetylaminophenyl)phenyl]-(2-chloro-5-nitrophenyl)carboxamide]"
4,0.013 µM,"O=C(Nc1ccc(-c2ccc(NC(=O)c3cc([N+](=O)[O-])ccc3Cl)cc2)cc1)c1ccccc1 [Example 120, N-[4-(4-Benzoylaminophenyl)phenyl]-(2-chloro-5-nitrophenyl)carboxamide]"
5,0.0081 µM,"O=C(Nc1ccc(-c2ccc(NC(=O)c3cc([N+](=O)[O-])ccc3Cl)cc2)cc1)c1cccnc1 [Example 124, N-[4-[4-(Pyridin-3-ylcarbonylamino)phenyl]phenyl]-(2-chloro-5-nitrophenyl)carboxamide]"
6,0.014 µM,"O=C(Nc1ccc(-c2ccc(NC(=O)c3cc([N+](=O)[O-])ccc3Cl)cc2)cc1)c1ccncc1 [Example 126, N-[4-[4-(Pyridin-4-ylcarbonylamino)phenyl]phenyl]-(2-chloro-5-nitrophenyl)carboxamide]"
7,0.011 µM,"O=C(Nc1ccc(NS(=O)(=O)c2ccccc2)cc1)c1cc([N+](=O)[O-])ccc1Cl [Example 127, N-(4-Benzenesulfonylaminophenyl)-(2-chloro-5-nitrophenyl)carboxamide]"
8,0.011 µM,"CCS(=O)(=O)Nc1ccc(-c2ccc(NC(=O)c3cc([N+](=O)[O-])ccc3Cl)cc2)cc1 [Example 130, N-[4-(4-Ethanesulfonylaminophenyl)phenyl]-(2-chloro-5-nitrophenyl)carboxamide]"
9,0.11 µM,"O=C(Nc1cnccn1)c1cc([N+](=O)[O-])ccc1Cl [Example 140, N-(Pyrazin-2-yl)-(2-chloro-5-nitrophenyl)carboxamide]"
10,0.012 µM,"O=C(Nc1ccc(S(=O)(=O)N2CCCCC2)cc1)c1cc([N+](=O)[O-])ccc1Cl [Example 151, N-[4-(Piperidyisulfonyl)phenyl]-(2-chloro-5-nitrophenyl)carboxamide]"
11,0.049 µM,"O=C(Nc1ccc(S(=O)(=O)N2CCOCC2)cc1)c1cc([N+](=O)[O-])ccc1Cl [Example 153, N-[4-(Morpholin-4-ylsulfonyl)phenyl]-(2-chloro-5-nitrophenyl)carboxamide]"
12,0.0098 µM,"CC(=O)c1ccc(NC(=O)c2cc([N+](=O)[O-])ccc2Cl)cc1 [Example 155, N-(4-Acetylphenyl)-(2-chloro-5-nitrophenyl)carboxamide]"
13,0.1 µM,"CC(=O)c1cccc(NC(=O)c2cc([N+](=O)[O-])ccc2Cl)c1 [Example 156, N-(3-Acetylphenyl)-(2-chloro-5-nitrophenyl)carboxamide]"
14,0.011 µM,"O=C(Nc1ccc(C(=O)N2CCCCC2)cc1)c1cc([N+](=O)[O-])ccc1Cl [Example 159, N-[4-(Piperidylcarbonyl)phenyl]-(2-chloro-5-nitrophenyl)carboxamide]"
15,0.0094 µM,"O=C(Nc1ccc(-n2ccnc2)cc1)c1cc([N+](=O)[O-])ccc1Cl [Example 174, N-[4-(Imidazol-1-yl)phenyl]-(2-chloro-5-nitrophenyl)carboxamide]"
16,0.099 µM,"CC(C)(C)c1cc(NS(=O)(=O)c2ccc(NC(=O)c3cc([N+](=O)[O-])ccc3Cl)cc2)cc(C(C)(C)C)c1O [Example 175, N-[4-[(3,5-di-tert-Butyl-4-hydroxyphenyl)aminosulfonyl]phenyl]-(2-chloro-5-nitrophenyl)carboxamide]"
17,0.094 µM,"O=C(Nc1ccc(-c2ccc(N3CCCCC3)cc2)cc1)c1cc([N+](=O)[O-])ccc1Cl [Example 177, N-[4-[4-(Piperidin-1-yl)phenyl]phenyl]-(2-chloro-5-nitrophenyl)carboxamide]"
18,0.033 µM,"CCCCCCN(CC)c1ccc(NC(=O)c2cc([N+](=O)[O-])ccc2Cl)cc1 [Example 188, N-[4-(N-Ethyl-N-hexylamino)phenyl]-(2-chloro-55 nitrophenyl)carboxamide]"
19,0.33 µM,"CCCN(CCC)c1ccc(-c2ccc(NC(=O)c3cc([N+](=O)[O-])ccc3Cl)cc2)cc1 [Example 194, N-[4-[4-(N,N-Dipropylamino)phenyl]phenyl]-(2-chloro-5-nitrophenyl)carboxamide]"
20,0.081 µM,N-[3-(Pyrrolidinylsulfonyl)phenyl]-(2-chloro-5-nitrophenyl)carboxamide [Example 154]
21,0.0076 µM,N-[4-(4-Methylbenzoylamino)phenyl]phenyl]-(2-chloro-5-nitrophenyl)carboxamide [Example 122]
22,0.035 µM,N-[4-(Benzenesulfonylaminophenyl)phenyl]-(2-chloro-5-nitrophenyl)carboxamide [Example 128]
23,0.048 µM,N-[4-[4-(Pyrrolidin-1-ylamino)phenyl]phenyl]-(2-chloro-5-nitrophenyl)carboxamide [Example 171]

row,Compound,IC50
1,O=C(Nc1ccc(Cl)nn1)c1cc([N+](=O)[O-])ccc1Cl [Example 89],0.4 µM
2,"CC(C)(C)OC(=O)Nc1ccc(-c2csc(NC(=O)c3cc([N+](=O)[O-])ccc3Cl)n2)cc1 [Example 190, N-[4-(4-tert-Butoxycarbonylaminophenyl)thiazol-2-yl]-(2-chloro-5-nitrophenyl)carboxamide]",0.036 µM

# Source: patent US20030134859A1 (SANKYO COMPANY, LIMITED, priority 2000, published 2003)
